Holding throughout (format): binding
Assay [1] has as its target T1, HRas^G12V (Homo sapiens (Human), UniProt P01112, G12V). Put plainly: 19F DLB (ligand-observed 19F NMR) score. The arrangement: scale not given here. The procedure, abridged: (§1)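 In the T2-CPMG experiment, echo spacing was 1 ms and total delays ranged over eight values from 1 to 800 ms. Both scores come from 600 MHz NMR of 50 μM HRas G12V mixed with fragment pools at 240 μM each, in phosphate buffer pH 7.4 with NaCl, MgCl2 and TCEP-d16. Ligand-observed 19F spectra were recorded with 1H decoupling, 64 scans and a 5 s relaxation delay.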

Assay [2] deals with T1, HRas^G12V. The experiment in a line: 19F T2-CPMG NMR score. The essentials:
as §1

Assay [3] has as its target T1, HRas^G12V. The experiment in a line: Dissociation constant by NMR (1H/15N Fast-HSQC, 1H 1D protein-observed). Particulars: HRas^G12V; read-out: NMR Kd. The protocol:
All NMR experiments were collected using 3 mm NMR tubes on a 600 MHz Bruker Avance III spectrometer equipped with a QCI helium cryoprobe and a SampleJet sample changer. The buffer used for NMR experiments was 25 mM sodium phosphate pH 7.4, 150 mM NaCl, 5 mM MgCl2, 1 mM TCEP-d16, 10% D2O. Data were processed using Bruker TopSpin.
^1H/^15N Fast-HSQC experiments (Mori et al., Journal of Magnetic Resonance, Series B, Volume 108, Issue 1, July 1995, Pages 94-98) were recorded at a protein concentration of 50-100 μM.
Dissociation constants were obtained by monitoring changes in chemical shifts as a function of ligand concentration. The changes in chemical shifts (d) were calculated according to the following equation (Williamson, Progress in Nuclear Magnetic Resonance Spectroscopy, Volume 73, August 2013, Pages 1-16): d=√(1/2[δ_H^2+[…]]), Where δ are the changes in chemical shift in ppm for ^1H and ^15N and the correction factor (α) was set at 0.15.
^1H 1D protein-observed experiments were recorded with 15-50 μM protein. The standard Bruker 1D ^1H sequence with excitation sculpting (zgesgp) was employed. A relaxation delay of 1 s was employed in order to use 256 scans while still keeping experimental time fairly short. Changes in protein chemical shift or peak intensity in the methyl region were monitored against compound concentration.

Assay [4] concerns the target T2, KRAS^G12D-GDP (Homo sapiens (Human), UniProt P01116, G12D). Put plainly: 19F DLB score, KRAS^G12D-GDP. The arrangement: scale not given here. The protocol: (§2) Since the fragment library was curated using phosphate buffer, 25 mM sodium phosphate pH 7.4, 150 mM NaCl, 5 mM MgCl2, 1 mM TCEP-d16, 10% D2O Fresh TCEP was used for experiments. Screening was performed using ^1H-decoupled 1D ^19F experiment Bruker experiment (zgfhigqn.2) with 64 scans and a relaxation delay of 5 seconds. 50 μM HRas^G12V and 240 μM of each fragment in pools (mixtures) were used.
(§3) Hit confirmation was performed using the same ^19F experiment as the screen. Ligand-observed 1D ^1H, protein-observed 1D ^1H, ^1H T2-CPMG as well as Saturation Transfer Difference (STD) experiments were also run on the same samples. Ligand-observed 1D ^1H was run using the standard Bruker sequence with excitation sculpting (zgesgp) with a relaxation delay of 10 seconds and 16 scans per spectrum. Protein-observed 1D ^1H was performed using the same sequence with a relaxation delay of 1 second and 256 scans in order to increase the signal-to-noise of the protein resonances, while keeping the experimental time relatively short. The ^1H T2-CPMG experiment employed a modified version of the Bruker 1D ^1H zgesgp experiment with the addition of a CPMG pulse train after the first 90° excitation pulse. Total duration for each spin echo was fixed at 1 ms (τ=500 μs), while the number of echoes in the pulse train was varied according to the total time (T). The number of scans for each spectrum was 4 and eight delay times were run on each sample, ranging from 1 ms to 800 ms.
(§4) The activity of compounds of the invention regarding KRAS^G12D-GDP was measured in the same as in Example 80. The results obtained with the compounds in the various assays described above are depicted in Table 23.

The target of assay [5] is T2, KRAS^G12D-GDP. The experiment in a line: 19F T2-CPMG score, KRAS^G12D-GDP. The protocol: as §2, §3, §4
A further assay deals with GDP-HRas^G12V (Homo sapiens (Human), UniProt P01112, G12V). Put plainly: Dissociation constant by microscale thermophoresis (MST). The protocol:
MST experiments were performed with a Monolith NT.115 Pico (NanoTemper Technologies, Munich, Germany). […] Data was acquired in PBS buffer with 0.1% pluronic acid. Data was analyzed with the NanoTemper MO.Affinity Analysis software.
On the technique in general: MST reads how a fluorescent partner responds to local heating, with and without ligand.

Several values for one entry are separate records, joined by “and”; a condition that tells them apart may be missing. Equal entries are not always repeated.

T1 sequence (P01112 1-166 G12V): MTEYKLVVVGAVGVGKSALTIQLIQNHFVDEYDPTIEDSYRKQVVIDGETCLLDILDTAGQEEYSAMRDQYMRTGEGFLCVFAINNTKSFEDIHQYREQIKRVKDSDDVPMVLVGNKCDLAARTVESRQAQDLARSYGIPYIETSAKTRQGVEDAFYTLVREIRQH
Sequence of GDP-HRas^G12V (P01112 1-166 G12V): as above
T2 sequence (P01116-2 other isoform, or with tags, fused parts or gaps G12D): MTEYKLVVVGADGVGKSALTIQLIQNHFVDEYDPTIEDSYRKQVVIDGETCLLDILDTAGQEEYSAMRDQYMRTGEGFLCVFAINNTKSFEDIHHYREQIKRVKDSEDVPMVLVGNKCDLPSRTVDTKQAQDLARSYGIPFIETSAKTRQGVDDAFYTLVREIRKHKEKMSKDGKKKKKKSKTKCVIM

Consider `CC(C)N1CCC(NC(=O)Cc2c[nH]c3cc(F)ccc23)CC1` [Compound 10018], for which the “19F DLB Score” value at HRas^G12V [1] is 1.64 and 1.79 and 1.93 and 1.86 and 1.71; at KRAS^G12D-GDP [4] it was 1.73. Moreover, the “19F T2-CPMG Score” value at HRas^G12V [2] is 10.62 and 11.88 and 18.24 and 9.37 and 15.13; at KRAS^G12D-GDP [5], 12.20. At HRas^G12V [3], the Kd (commonly the free concentration of one partner at which half of the binding sites on the other are occupied at equilibrium, for simple one-to-one binding) was 3.03 to 3.7 mM.

Take `O=C(Cc1c[nH]c2cc(F)ccc12)N1CCC(O)CC1` [Compound 10086]: the “19F DLB Score” value on HRas^G12V [1] is reported as 3.04; at KRAS^G12D-GDP [4], 3.33. Also, the “19F T2-CPMG Score” value on HRas^G12V [2] was 32.13; on KRAS^G12D-GDP [5], “>LOQ”. Moreover, the Kd fell in the range of 2.37 to 4 mM at HRas^G12V [3] and 1810 to 2080 µM at GDP-HRas^G12V.

In the case of `CN(C)CCOc1cccc(NC(=O)Cc2c[nH]c3cc(F)ccc23)c1` [Compound 10095, N-(3-(2-(dimethylamino)ethoxy)phenyl)-2-(6-fluoro-1H-indol-3-yl)acetamide], the “19F DLB Score” value at HRas^G12V [1] turned out to be 4.19; on KRAS^G12D-GDP [4], 3.56. In addition, the “19F T2-CPMG Score” value on HRas^G12V [2] is recorded as 33.38; on KRAS^G12D-GDP [5] it was “>LOQ”. For the same molecule, the figures for the Kd on HRas^G12V [3] and at GDP-HRas^G12V were 0.036 mM and 19.1 to 23.5 µM, respectively.

Turning to `CN(C)CC(=O)Nc1cccc(NC(=O)Cc2c[nH]c3cc(F)ccc23)c1` [compound 10097], the entries for the “19F DLB Score” value on HRas^G12V [1] and on KRAS^G12D-GDP [4] were 3.84 and 4.36, respectively. Besides, the figures for the “19F T2-CPMG Score” value at HRas^G12V [2] and at KRAS^G12D-GDP [5] were 38.49 and “>LOQ”, respectively. Further, the figures for the Kd at HRas^G12V [3] and on GDP-HRas^G12V were 0.108 mM and 65 to 82.9 µM, respectively.

The values are drawn from patent publication US20240408064A1, “RAS INHIBITORS, COMPOSITIONS AND METHODS OF USE THEREOF” (GENETOLEAD INC., priority 2021, published 2024).
